The values that follow are results of earlier work, collected in publication PMC7751758, “Repurposing Sigma-1 Receptor Ligands for COVID-19 Therapy?” (Frontiers in Pharmacology, 2020).

Each structure is given as a SMILES string.

The test system of the data set is SARS-CoV. The note with it: mouse, in vivo.

On to `CN(C)CCCN1c2ccccc2Sc2ccc(Cl)cc21` [Chlorpromazine], for which the clinical disease entry was “did protect mice from clinical disease” and the “virus replication in lungs” value is listed as “did not inhibit virus replication in lungs”.

As for `CCN(CC)CCCC(C)Nc1ccnc2cc(Cl)ccc12` (stereo not shown) [Chloroquine], the clinical disease entry is listed as “did protect mice from clinical disease” and the “virus replication in lungs” value is recorded as “did not inhibit virus replication in lungs”.
